Measured values: patent US11377442B2, “Small molecule agonists and antagonists of NR2F6 activity” (ZANDER THERAPEUTICS, INC., priority 2016, dated 2022)

Biological target: T1, NR2F6 (Homo sapiens, UniProt P10588)
T1 construct: expressed in transfected cells; also transient transfection
T1 sequence (P10588 1-404): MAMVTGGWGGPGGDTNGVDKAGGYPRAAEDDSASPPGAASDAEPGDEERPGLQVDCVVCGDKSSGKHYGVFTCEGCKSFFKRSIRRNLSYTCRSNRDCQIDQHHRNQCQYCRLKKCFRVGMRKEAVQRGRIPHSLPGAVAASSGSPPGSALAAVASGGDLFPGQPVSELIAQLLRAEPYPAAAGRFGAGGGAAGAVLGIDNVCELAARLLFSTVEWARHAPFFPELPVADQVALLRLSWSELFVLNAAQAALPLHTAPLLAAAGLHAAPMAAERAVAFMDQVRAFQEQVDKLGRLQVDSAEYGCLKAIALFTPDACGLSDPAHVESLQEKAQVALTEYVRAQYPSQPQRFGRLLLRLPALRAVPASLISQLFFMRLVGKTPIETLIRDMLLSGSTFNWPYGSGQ
Assay: NR2F6 agonist screening, Firefly signal cmpd/DMSO
Format: cell-based
Design: Firefly NR2F6 full length, cmpd/DMSO (mean) / Firefly F4, cmpd/DMSO (mean): unit of the concentration uncertain
Conditions: for Firefly/Renilla (NR2F6 stable, clone F4): ratio Firefly/Renilla; for Firefly, NR2F6 stable (clone F4)/pGL4: ratio of Firefly in NR2F6 stable clone F4 to pGL4

[1] = C11 analogs follow set (Tables 2-10)
[2] = Concentration 2 (unit uncertain)
[3] = Concentration 10 (unit uncertain)
[4] = Concentration 40 (unit uncertain)

Row | SMILES | Firefly, cmpd/DMSO repeat 1 [1] | Firefly, cmpd/DMSO repeat 2 [1] | also measured
1 | COC(=O)c1ccc2oc(=O)c(S(=O)(=O)c3ccc(C)cc3)cc2c1 [Compound C13] | 14.0 | 12.9 | Firefly/Renilla (NR2F6 stable, clone F4) (Table 12): 1.8; Firefly, NR2F6 stable (clone F4)/pGL4 (Table 12): 4.2; Firefly, cmpd/DMSO repeat 1 (Table 12): 14.0; Firefly, cmpd/DMSO repeat 2 (Table 12): 12.9
2 | COc1ccc(S(=O)(=O)c2cc3cccc(OC)c3oc2=O)cc1 [Compound C232] | – | – | Firefly, cmpd/DMSO repeat 1 (Table 9): 1.0; Firefly, cmpd/DMSO repeat 2 (Table 9): 0.9
3 | COc1ccc(-c2noc(Cn3nccc(C)c3=O)n2)cc1 [Compound Z153] | – | – | Firefly, cmpd/DMSO (mean): 2.0
4 | Cc1ccc(S(=O)(=O)c2cc3cc(C(=O)Nc4cccc(C)c4)ccc3oc2=O)cc1 [Compound C171] | 6.4 | 4.2 | –
5 | COc1ccccc1-c1noc(COc2nccc(C)n2)n1 [Compound Z149] | – | – | Firefly, cmpd/DMSO (mean): 1.5
6 | COc1ccc2cc(S(=O)(=O)c3cc(C)cc(C)c3)c(=O)oc2c1 [Compound C260] | 1.0 | 1.0 | –
7 | COc1ccc(-c2noc(Cn3ncc(C)cc3=O)n2)cc1 [Compound Z152] | – | – | Firefly, cmpd/DMSO (mean): 1.6
8 | O=C(NCCc1ccccc1)c1ccc2oc(=O)c(S(=O)(=O)c3ccc(F)cc3)cc2c1 [Compound C113] | 5.8 | 7.0 | –
9 | CCN(CC)c1ccc2cc(S(=O)(=O)c3ccc(C)cc3)c(=O)oc2c1 [Compound C277] | 3.4 | 2.9 | –
10 | COc1cc(Br)cc2cc(S(=O)(=O)c3ccc(C(C)(C)C)cc3)c(=O)oc12 [Compound C297] | – | – | Firefly, cmpd/DMSO repeat 1 (Table 11): 1.5; Firefly, cmpd/DMSO repeat 2 (Table 11): 2.6
11 | COc1ccc(NC(=O)c2ccc3oc(=O)c(S(=O)(=O)c4ccc(Cl)cc4)cc3c2)cc1OC [Compound C122] | 4.4 | 5.7 | –
12 | O=C(Nc1ccccc1C(F)(F)F)c1ccc2oc(=O)c(S(=O)(=O)c3ccc(F)cc3)cc2c1 [Compound C120] | 4.5 | 6.3 | –
13 | O=c1oc2cc(O)ccc2cc1S(=O)(=O)c1ccccc1 [Compound C273] | 2.0 | 1.5 | –
14 | O=c1oc2ccc(Br)cc2cc1S(=O)(=O)c1ccc(F)cc1 [Compound C198] | 1.0 | 0.8 | –
15 | O=c1oc2c(F)cc(F)cc2cc1S(=O)(=O)c1ccc(Br)cc1 [Compound C290] | – | – | Firefly, cmpd/DMSO repeat 1 (Table 11): 13.8; Firefly, cmpd/DMSO repeat 2 (Table 11): 14.6
16 | Cc1cccc(NC(=O)c2ccc3oc(=O)c(S(=O)(=O)c4ccc(Cl)cc4)cc3c2)c1 [Compound C173] | 9.8 | 6.9 | –
17 | O=c1oc2ccccc2cc1S(=O)(=O)c1ccc(F)c(Cl)c1 [Compound C107] | 11.0 | 11.0 | Firefly/Renilla (NR2F6 stable, clone F4) (Table 13): 1.4; Firefly, NR2F6 stable (clone F4)/pGL4 (Table 13): 5.8; Firefly, cmpd/DMSO repeat 1 (Table 13): 11.0; Firefly, cmpd/DMSO repeat 2 (Table 13): 11.0
18 | O=c1oc2ccc(F)cc2cc1S(=O)(=O)c1ccc(Cl)cc1 [Compound C218] | 18.2 | 19.1 | Firefly/Renilla (NR2F6 stable, clone F4) (Table 12): 1.7; Firefly, NR2F6 stable (clone F4)/pGL4 (Table 12): 9.5; Firefly, cmpd/DMSO repeat 1 (Table 12): 18.2; Firefly, cmpd/DMSO repeat 2 (Table 12): 19.1
19 | COc1ccccc1-c1noc(Cn2nccc(Cl)c2=O)n1 [Compound Z134] | – | – | Firefly, cmpd/DMSO (mean): 1.1
20 | Cc1ccc(NC(=O)c2ccc3oc(=O)c(S(=O)(=O)c4ccc(F)cc4)cc3c2)cc1 [Compound C163] | 2.0 | 5.2 | –
21 | Cc1cc(S(=O)(=O)c2cc3cc(Cl)ccc3oc2=O)ccc1F [Compound C224] | 6.6 | 11.4 | –

Row | SMILES | Firefly, cmpd/DMSO repeat 1 [1] | Firefly, cmpd/DMSO repeat 2 [1] | also measured
22 | Cc1cc(C)cc(S(=O)(=O)c2cc3cc(F)ccc3oc2=O)c1 [Compound C190] | 2.1 | 2.5 | –
23 | O=c1oc2ccc(Br)cc2cc1S(=O)(=O)c1cccc(Cl)c1 [Compound C192] | 1.8 | 2.4 | –
24 | Cc1ccc(NC(=O)c2ccc3oc(=O)c(S(=O)(=O)c4ccc(F)cc4)cc3c2)cc1C [Compound C169] | 8.8 | 10.6 | –
25 | O=C(NCc1ccc(F)cc1)c1ccc2oc(=O)c(S(=O)(=O)c3ccc(Cl)cc3)cc2c1 [Compound C119] | 18.4 | 16.2 | –
26 | O=c1oc2ccc(Br)cc2cc1S(=O)(=O)c1ccccc1F [Compound C219] | 1.3 | 2.5 | –
27 | COc1ccccc1-c1noc(Cn2ncc(Cl)cc2=O)n1 [Compound Z135] | – | – | Firefly, cmpd/DMSO (mean): 1.0
28 | COc1cc(Br)cc2cc(S(=O)(=O)c3ccc(F)c(C)c3)c(=O)oc12 [Compound C298] | – | – | Firefly, cmpd/DMSO repeat 1 (Table 11): 2.2; Firefly, cmpd/DMSO repeat 2 (Table 11): 3.2
29 | COc1cccc2cc(S(=O)(=O)c3ccc(F)c(C)c3)c(=O)oc12 [Compound C257] | – | – | Firefly, cmpd/DMSO repeat 1 (Table 9): 2.1; Firefly, cmpd/DMSO repeat 2 (Table 9): 1.6
30 | CC(C)c1ccc(S(=O)(=O)c2cc3cc(Cl)ccc3oc2=O)cc1 [Compound C140] | 12.8 | 12.0 | –
31 | COc1cccc2cc(S(=O)(=O)c3ccccc3F)c(=O)oc12 [Compound C253] | – | – | Firefly, cmpd/DMSO repeat 1 (Table 9): 2.5; Firefly, cmpd/DMSO repeat 2 (Table 9): 2.7
32 | O=c1oc2ccc([N+](=O)[O-])cc2cc1S(=O)(=O)c1ccccc1 [Compound C210] | 22.8 | 14.3 | Firefly/Renilla (NR2F6 stable, clone F4) (Table 13): 1.5; Firefly, NR2F6 stable (clone F4)/pGL4 (Table 13): 8.2; Firefly, cmpd/DMSO repeat 1 (Table 13): 22.8; Firefly, cmpd/DMSO repeat 2 (Table 13): 14.3
33 | CCOc1cccc2cc(S(=O)(=O)c3ccc(Br)cc3)c(=O)oc12 [Compound C239] | – | – | Firefly, cmpd/DMSO repeat 1 (Table 9): 1.4; Firefly, cmpd/DMSO repeat 2 (Table 9): 2.2
34 | O=c1oc2c(F)cc(F)cc2cc1S(=O)(=O)c1ccccc1 [Compound C288] | – | – | Firefly, cmpd/DMSO repeat 1 (Table 11): 6.8; Firefly, cmpd/DMSO repeat 2 (Table 11): 3.3
35 | Cc1ccc2oc(=O)c(S(=O)(=O)c3cccc(C#N)c3)cc2c1 [Compound C299] | – | – | Firefly/Renilla (NR2F6 stable, clone F4) (Table 12): 4.0; Firefly, NR2F6 stable (clone F4)/pGL4 (Table 12): 10.1; Firefly, cmpd/DMSO repeat 1 (Table 12): 21.5; Firefly, cmpd/DMSO repeat 2 (Table 12): 15.2
36 | Cc1ccc(S(=O)(=O)c2cc3cc([N+](=O)[O-])ccc3oc2=O)cc1 [Compound C211] | 5.8 | 17.7 | –
37 | O=C(Nc1ccc(F)cc1)c1ccc2oc(=O)c(S(=O)(=O)c3ccc(F)cc3)cc2c1 [Compound C159] | 0.9 | 1.2 | –
38 | Cc1cccc(NC(=O)c2ccc3oc(=O)c(S(=O)(=O)c4ccc(Cl)cc4)cc3c2)c1C [Compound C136] | 22.1 | 25.8 | Firefly/Renilla (NR2F6 stable, clone F4) (Table 12): 1.7; Firefly, NR2F6 stable (clone F4)/pGL4 (Table 12): 8.1; Firefly, cmpd/DMSO repeat 1 (Table 12): 22.1; Firefly, cmpd/DMSO repeat 2 (Table 12): 25.8
39 | O=c1oc2ccc(Cl)cc2cc1S(=O)(=O)c1cccc(F)c1 [Compound C182] | 16.2 | 17.3 | Firefly/Renilla (NR2F6 stable, clone F4) (Table 13): 1.2; Firefly, NR2F6 stable (clone F4)/pGL4 (Table 13): 8.2; Firefly, cmpd/DMSO repeat 1 (Table 13): 16.2; Firefly, cmpd/DMSO repeat 2 (Table 13): 17.3
40 | Cc1ccc(S(=O)(=O)c2cc3cc(Br)ccc3oc2=O)cc1 [Compound C197] | 17.6 | 14.8 | Firefly/Renilla (NR2F6 stable, clone F4) (Table 13): 1.1; Firefly, NR2F6 stable (clone F4)/pGL4 (Table 13): 6.3; Firefly, cmpd/DMSO repeat 1 (Table 13): 17.6; Firefly, cmpd/DMSO repeat 2 (Table 13): 14.8
41 | COc1cc(Br)cc2cc(S(=O)(=O)c3ccccc3)c(=O)oc12 [Compound C294] | – | – | Firefly, cmpd/DMSO repeat 1 (Table 11): 16.5; Firefly, cmpd/DMSO repeat 2 (Table 11): 16.5
42 | COc1ccc(S(=O)(=O)NCc2nc3nc(C)cc(C)n3n2)cc1OC [Compound E8] | – | – | Firefly F4, cmpd/DMSO (mean) [2]: 1.0; Firefly NR2F6 full length, cmpd/DMSO (mean) [2]: 1.2; Firefly F4, cmpd/DMSO (mean) [3]: 1.0; Firefly NR2F6 full length, cmpd/DMSO (mean) [3]: 1.2; Firefly F4, cmpd/DMSO (mean) [4]: 0.7; Firefly NR2F6 full length, cmpd/DMSO (mean) [4]: 0.9

More lines, main results first:

Row | Firefly, cmpd/DMSO repeat 1 [1] | Firefly, cmpd/DMSO repeat 2 [1] | SMILES | also measured
43 | 3.3 | 3.5 | COc1ccc2cc(S(=O)(=O)c3ccc(OC)c(OC)c3)c(=O)oc2c1 [Compound C274] | –
44 | 25.5 | 29.8 | COc1ccccc1NC(=O)c1ccc2oc(=O)c(S(=O)(=O)c3ccc(F)cc3)cc2c1 [Compound C124] | –
45 | 2.1 | 1.8 | COc1ccc2oc(=O)c(S(=O)(=O)c3ccccc3)cc2c1 [Compound C206] | –
46 | 1.7 | 1.9 | O=c1oc2ccc(F)cc2cc1S(=O)(=O)c1ccccc1 [Compound C212] | –
47 | 2.3 | 3.4 | COc1cc(NC(=O)c2ccc3oc(=O)c(S(=O)(=O)c4ccccc4)cc3c2)cc(OC)c1 [Compound C130] | –
